The source of these data is US20040019018A1, “Rigid pyrrolidone modulators of pkc” (priority 2003, published 2004).

One assay relates to PC12 cells. As to conditions: cited from earlier work.
A further assay deals with sAPP. The settings on record: cited from earlier work.
In another assay the test system is 113pS K+ channels. The settings on record: cited from earlier work.
Assay [1] concerns LNCaP prostate cancer cells. In words: Induction of apoptosis in LNCaP prostate cancer cells (DAPI staining). In kind it is cell-based. As to the method: The capacity of inducing apoptosis by compound (1) was evaluated in a model of LNCaP prostate cancer cells. It is well established that in this model phorbol esters (e.g., PMA) activate PKC to induce apoptosis (reference 13). LNCaP cells were treated with compound (1) for 1 h, and apoptosis was assessed 24 h later.
Control cells or cells infected for 14 h with adenoviruses for LacZ, PKCα, or PKCδ (multiplicity of infection=10 pfu/cell) were treated with different concentrations of compound (1) or PMA for 1 h. Cells were collected 24 h later and stained with DAPI. The incidence of apoptosis in each preparation was analyzed by counting 500 cells and determining the percentage of apoptotic cells. Results are the mean±standard error of three independent experiments.
It is well established that PKCα and PKCδ are the isozymes that mediate phorbol ester-induced apoptosis in LNCaP cells (references 13c-e). A model that has been used to assess isozyme-specificity is the overexpression of specific PKCs by an adenoviral system. Infection of LNCaP cells with adenoviruses for PKCs leads to a high expression of the corresponding PKC isozyme, as determined by Western-blot analysis, kinase activity, or [^3H]PDBu binding (reference 13e).

Regarding `CCCCCCCCC#Cc1ccc2c(c1)C[C@@H](CO)NC(=O)[C@H](C(C)C)N2C` [BL, (2S, 5S)-8-(1-decynyl)benzolactam], the sAPP secretion in the assay with PC12 cells is listed as around 3 fold. Moreover, the “sAPP secretion in control fibroblasts” value with sAPP (control fibroblasts, 10 μM BL) is “significant increases of sAPP secretion”. Besides, in the assay with sAPP (fibroblasts), the “sAPP secretion over basal levels” value is “enhance sAPP secretion over basal levels”. Moreover, in the assay with 113pS K+ channels, the “responsiveness of AD fibroblast cell lines to the TEA challenge” value is given as “restored the responsiveness”.
For the compound `CCCCCCCCCCCCCC(=O)O[C@@H]1[C@@H](C)[C@@]2(O)[C@@H](C=C(CO)C[C@]3(O)C(=O)C(C)=C[C@@H]23)[C@@H]2C(C)(C)[C@]12OC(C)=O` [PMA, reference compound], the “apoptotic effect with control adenovirus” value in assay [1] (LNCaP cells infected with LacZ adenovirus) is on record as “did not affect the apoptotic effect”. Moreover, the “apoptotic response with overexpression of PKC isozymes” value in assay [1] (LNCaP cells infected with adenoviruses for PKCα or PKCδ) was “marked potentation”.
For `CN[C@@H]1C[C@H]2O[C@@](C)([C@@H]1OC)n1c3ccccc3c3c4c(c5c6ccccc6n2c5c31)C(=O)NC4` [Staurosporine], the “effect on BL-induced sAPP secretion” value in the assay with sAPP (control and AD fibroblasts) was “eliminated the effects of BL”.
